Reference: ChEMBL document CHEMBL3045694, “Insecticidal activity and chemical composition of volatile oils from Hyptis martiusii Benth” (2003)

How the values were obtained:
Type in all cases: functional
[1] = test system: Aedes aegypti; assay: Larvicidal activity against third larval stage of Aedes aegypti assessed as mortality at 500 mg/L after 24 hr
[2] = test system: Bemisia argentifolii; assay: Insecticidal activity against adult Bemisia argentifolii reared on compound-treated melon leaves assessed as mortality at 1000 mg/L applied as spray after 72 hr
[3] = test system: Aedes aegypti; assay: Larvicidal activity against third larval stage of Aedes aegypti assessed as mortality at 25 mg/L after 24 hr
[4] = test system: Aedes aegypti; assay: Larvicidal activity against third larval stage of Aedes aegypti assessed as mortality at 100 mg/L after 24 hr
[5] = test system: Bemisia argentifolii; assay: Insecticidal activity against adult Bemisia argentifolii reared on compound-treated melon leaves assessed as layed eggs at 1000 mg/L applied as spray after 72 hr
[6] = test system: Aedes aegypti; assay: Larvicidal activity against third larval stage of Aedes aegypti assessed as mortality at 250 mg/L after 24 hr
[7] = test system: Aedes aegypti; assay: Larvicidal activity against third larval stage of Aedes aegypti assessed as mortality at 50 mg/L after 24 hr

Compound `CC12CCC(CC1)C(C)(C)O2` [EUCALYPTOL] has a mortality at 500 µg/mL [1] of 100%, a mortality at 1000 µg/mL [2] of 91.2% and a mortality at 25 µg/mL [3] of 10%. It also gave a mortality at 100 µg/mL [4] of 100%, an Activity [5] of 9.2% and a mortality at 250 µg/mL [6] of 100%. It also gave a mortality at 50 µg/mL [7] of 53%.
